Measured values: patent publication US8507489B2, “Bicyclic triazoles as protein kinase modulators” (SGX Pharmaceuticals, Inc., priority 2006, dated 2013)

What was measured:
MERTK (cMER) = MERTK (cMER) (Homo sapiens, UniProt Q12866); assay: SelectScreen Kinase Profiling MERTK; type: biochemical
Description: (§1) SelectScreen™ is a trademark screening assay protocol for kinases developed by Invitrogen Corporation, Madison, Wis. Details on assay conditions can be found on the company's website.

RPS6KB1 (p70S6K) = RPS6KB1 (p70S6K) (Homo sapiens, UniProt P23443); assay: SelectScreen Kinase Profiling RPS6KB1; type: biochemical
Description: as §1

MAP2K1 (MEK1) = MAP2K1 (MEK1) (Homo sapiens, UniProt Q02750); assay: SelectScreen Kinase Profiling MAP2K1; type: biochemical
Description: as §1

JAK2 JH1 JH2 V617F = molecular target: T1, JAK2 JH1 JH2 V617F (Homo sapiens, UniProt O60674, V617F); assay: SelectScreen Kinase Profiling JAK2 JH1 JH2 V617F; type: biochemical
T1 construct: JAK2 JH1 JH2 V617F
Description: as §1

ABL1 T315I = ABL1 T315I (Homo sapiens, UniProt P00519, T315I); assay: SelectScreen Kinase Profiling ABL1 T315I; type: biochemical
Description: as §1

CDK1/cyclin B = CDK1/cyclin B (Homo sapiens, UniProt P06493); assay: SelectScreen Kinase Profiling CDK1/cyclin B; type: biochemical
Description: as §1

HCK = HCK (Homo sapiens, UniProt P08631); assay: SelectScreen Kinase Profiling HCK; type: biochemical
Description: as §1

EPHA2 = EPHA2 (Homo sapiens, UniProt P29317); assay: SelectScreen Kinase Profiling EPHA2; type: biochemical
Description: as §1

MAP4K4 (HGK) = MAP4K4 (HGK) (Homo sapiens, UniProt O95819); assay: SelectScreen Kinase Profiling MAP4K4; type: biochemical
Description: as §1

PDGFRA T674I = PDGFRA T674I (Homo sapiens, UniProt P16234, T674I); assay: SelectScreen Kinase Profiling PDGFRA T674I; type: biochemical
Description: as §1

RET = RET (Homo sapiens, UniProt P07949); assay: SelectScreen Kinase Profiling RET; type: biochemical
Chain of RET (P07949 29-1114): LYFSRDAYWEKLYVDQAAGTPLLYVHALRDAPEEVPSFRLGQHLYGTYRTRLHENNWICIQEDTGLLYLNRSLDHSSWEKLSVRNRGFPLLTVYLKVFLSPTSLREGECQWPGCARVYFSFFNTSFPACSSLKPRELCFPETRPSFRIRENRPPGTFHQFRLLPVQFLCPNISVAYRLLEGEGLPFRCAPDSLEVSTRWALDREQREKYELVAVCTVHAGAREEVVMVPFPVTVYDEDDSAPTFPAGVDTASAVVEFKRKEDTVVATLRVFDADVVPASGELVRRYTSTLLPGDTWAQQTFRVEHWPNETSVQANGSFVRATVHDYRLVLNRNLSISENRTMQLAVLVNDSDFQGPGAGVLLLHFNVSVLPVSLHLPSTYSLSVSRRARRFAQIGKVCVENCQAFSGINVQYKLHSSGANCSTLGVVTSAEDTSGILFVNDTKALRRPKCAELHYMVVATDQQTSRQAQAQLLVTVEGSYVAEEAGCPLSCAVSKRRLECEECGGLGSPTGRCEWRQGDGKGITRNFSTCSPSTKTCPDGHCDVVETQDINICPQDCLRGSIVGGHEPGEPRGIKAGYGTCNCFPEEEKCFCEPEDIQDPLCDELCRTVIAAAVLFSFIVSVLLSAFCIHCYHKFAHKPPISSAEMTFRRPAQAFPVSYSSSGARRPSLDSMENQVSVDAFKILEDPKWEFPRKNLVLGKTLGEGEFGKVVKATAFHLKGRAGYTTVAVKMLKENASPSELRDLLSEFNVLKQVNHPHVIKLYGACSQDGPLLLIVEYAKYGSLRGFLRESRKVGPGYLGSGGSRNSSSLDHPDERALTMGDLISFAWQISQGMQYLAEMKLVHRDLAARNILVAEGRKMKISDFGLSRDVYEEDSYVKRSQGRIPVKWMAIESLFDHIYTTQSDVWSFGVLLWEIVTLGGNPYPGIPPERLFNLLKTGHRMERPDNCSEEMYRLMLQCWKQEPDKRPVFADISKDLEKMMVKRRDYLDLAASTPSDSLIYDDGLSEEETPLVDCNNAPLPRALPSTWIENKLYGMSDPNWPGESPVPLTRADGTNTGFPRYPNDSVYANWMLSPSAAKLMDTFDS
Description: as §1

PIM1 = PIM1 (Homo sapiens, UniProt P11309); assay: SelectScreen Kinase Profiling PIM1; type: biochemical
Chain of PIM1 (P11309 whole entry): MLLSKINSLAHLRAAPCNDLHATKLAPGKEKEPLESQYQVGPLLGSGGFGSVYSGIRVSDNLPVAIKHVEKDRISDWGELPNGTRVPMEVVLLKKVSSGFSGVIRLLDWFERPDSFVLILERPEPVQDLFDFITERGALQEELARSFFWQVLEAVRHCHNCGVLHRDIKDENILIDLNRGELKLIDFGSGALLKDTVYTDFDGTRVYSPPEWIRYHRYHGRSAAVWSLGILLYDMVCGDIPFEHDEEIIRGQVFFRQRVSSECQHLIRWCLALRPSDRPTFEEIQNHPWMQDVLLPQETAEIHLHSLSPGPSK
Description: as §1

AURKA (Aurora A) = AURKA (Aurora A) (Homo sapiens, UniProt O14965); assay: SelectScreen Kinase Profiling AURKA; type: biochemical
Description: as §1

ROS1 = ROS1 (Homo sapiens, UniProt P08922); assay: SelectScreen Kinase Profiling ROS1; type: biochemical
Description: as §1

PTK2B (FAK2) = PTK2B (FAK2) (Homo sapiens, UniProt Q14289); assay: SelectScreen Kinase Profiling PTK2B; type: biochemical
Description: as §1

MAPK1 (ERK2) = MAPK1 (ERK2) (Homo sapiens, UniProt P28482); assay: SelectScreen Kinase Profiling MAPK1; type: biochemical
Description: as §1

AKT1 (PKB alpha) = AKT1 (PKB alpha) (Homo sapiens, UniProt P31749); assay: SelectScreen Kinase Profiling AKT1; type: biochemical
Description: as §1

IKBKB (IKK beta) = IKBKB (IKK beta) (Homo sapiens, UniProt O14920); assay: SelectScreen Kinase Profiling IKBKB; type: biochemical
Description: as §1

PRKCD (PKC delta) = PRKCD (PKC delta) (Homo sapiens, UniProt Q05655); assay: SelectScreen Kinase Profiling PRKCD; type: biochemical
Description: as §1

PDK1 = PDK1 (Homo sapiens, UniProt O15530); assay: SelectScreen Kinase Profiling PDK1; type: biochemical
Chain of PDK1 (O15530 whole entry): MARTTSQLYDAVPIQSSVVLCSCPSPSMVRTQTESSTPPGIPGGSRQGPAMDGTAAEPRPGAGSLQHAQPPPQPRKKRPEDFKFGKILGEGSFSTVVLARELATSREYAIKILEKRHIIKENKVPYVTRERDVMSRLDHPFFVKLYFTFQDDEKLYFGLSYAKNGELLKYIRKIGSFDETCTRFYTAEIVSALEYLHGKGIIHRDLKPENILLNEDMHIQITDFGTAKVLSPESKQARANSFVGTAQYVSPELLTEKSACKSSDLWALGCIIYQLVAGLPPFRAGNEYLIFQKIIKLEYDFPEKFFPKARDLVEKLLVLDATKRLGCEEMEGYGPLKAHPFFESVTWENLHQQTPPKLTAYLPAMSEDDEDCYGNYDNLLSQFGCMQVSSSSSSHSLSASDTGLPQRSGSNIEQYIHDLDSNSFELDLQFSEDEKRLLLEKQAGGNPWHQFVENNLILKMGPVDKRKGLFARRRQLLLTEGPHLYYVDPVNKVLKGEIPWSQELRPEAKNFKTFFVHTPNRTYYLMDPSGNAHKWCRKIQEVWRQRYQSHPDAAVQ
Description: as §1

BRAF V599E = BRAF V599E (Homo sapiens, UniProt P15056, V600E); assay: SelectScreen Kinase Profiling BRAF V599E; type: biochemical
Description: as §1

NTRK3 (TRKC) = NTRK3 (TRKC) (Homo sapiens, UniProt Q16288); assay: SelectScreen Kinase Profiling NTRK3; type: biochemical
Description: as §1

AURKB (Aurora B) = AURKB (Aurora B) (Homo sapiens, UniProt Q96GD4); assay: SelectScreen Kinase Profiling AURKB; type: biochemical
Description: as §1

GRK4 = GRK4 (Homo sapiens, UniProt P32298); assay: SelectScreen Kinase Profiling GRK4; type: biochemical
Description: as §1

FLT3 D835Y = FLT3 D835Y (Homo sapiens, UniProt P36888, D835Y); assay: SelectScreen Kinase Profiling FLT3 D835Y; type: biochemical
Description: as §1

GSK3B (GSK3 beta) = GSK3B (GSK3 beta) (Homo sapiens, UniProt P49841); assay: SelectScreen Kinase Profiling GSK3B; type: biochemical
Description: as §1

GTL16 tumors = assay: GTL16 tumor xenograft model, tumor growth; type: in vivo; settings: last day of treatment, nude mice
Protocol: Female athymic nude mice (nu/nu from Harlan) were 6-8 weeks old with a body weight range of 18-22 g at the beginning of the study. The animals had free access to food and water throughout the study. The mice were housed on irradiated Alpha-Dri® Bed-O-Cobs® Laboratory Animal Bedding in static micro isolator caging on a 12-hour light cycle at 70-74° F. and 40-60% humidity. All procedures involving animals were conducted in compliance with the NIH Guide for the Care and Use of Laboratory Animals and all protocols were approved by an Internal Animal Care and Use Committee (IACUC).
Xenografts were initiated from GTL-16 tumor cells cultured and maintained by an internal Cell Biology Department. Each test mouse received a subcutaneous injection of 4×10^6 cells suspended in 100 μL of serum free RPMI media. Tumors were randomized into treatment groups on Day 5 when the average tumor size reached approximately 150 mm^3. Each dose groups contained n=5 mice. Tumor volume was calculated using the formula:
[formula] where w=width and l=length in mm of the tumor. Tumor weight may be estimated with the assumption that 1 mg is equivalent to 1 mm^3 of tumor volume. Tumor Growth Inhibition (TGI) Analysis
TGI was calculated from the difference between the mean tumor volumes of vehicle-treated and drug-treated mice, expressed as a percentage. % TGI=Mean Tumor Volumecontrol−Mean Tumor Volumedrug-treated×100 […] Tumor Volumecontrol
The MTV is defined as the mean tumor volume (MTV) for the number of animals, n, remaining in the study on that day.

CSF1R (FMS) = CSF1R (FMS) (Homo sapiens, UniProt P07333); assay: SelectScreen Kinase Profiling CSF1R; type: biochemical
Chain of CSF1R (FMS) (P07333 20-972): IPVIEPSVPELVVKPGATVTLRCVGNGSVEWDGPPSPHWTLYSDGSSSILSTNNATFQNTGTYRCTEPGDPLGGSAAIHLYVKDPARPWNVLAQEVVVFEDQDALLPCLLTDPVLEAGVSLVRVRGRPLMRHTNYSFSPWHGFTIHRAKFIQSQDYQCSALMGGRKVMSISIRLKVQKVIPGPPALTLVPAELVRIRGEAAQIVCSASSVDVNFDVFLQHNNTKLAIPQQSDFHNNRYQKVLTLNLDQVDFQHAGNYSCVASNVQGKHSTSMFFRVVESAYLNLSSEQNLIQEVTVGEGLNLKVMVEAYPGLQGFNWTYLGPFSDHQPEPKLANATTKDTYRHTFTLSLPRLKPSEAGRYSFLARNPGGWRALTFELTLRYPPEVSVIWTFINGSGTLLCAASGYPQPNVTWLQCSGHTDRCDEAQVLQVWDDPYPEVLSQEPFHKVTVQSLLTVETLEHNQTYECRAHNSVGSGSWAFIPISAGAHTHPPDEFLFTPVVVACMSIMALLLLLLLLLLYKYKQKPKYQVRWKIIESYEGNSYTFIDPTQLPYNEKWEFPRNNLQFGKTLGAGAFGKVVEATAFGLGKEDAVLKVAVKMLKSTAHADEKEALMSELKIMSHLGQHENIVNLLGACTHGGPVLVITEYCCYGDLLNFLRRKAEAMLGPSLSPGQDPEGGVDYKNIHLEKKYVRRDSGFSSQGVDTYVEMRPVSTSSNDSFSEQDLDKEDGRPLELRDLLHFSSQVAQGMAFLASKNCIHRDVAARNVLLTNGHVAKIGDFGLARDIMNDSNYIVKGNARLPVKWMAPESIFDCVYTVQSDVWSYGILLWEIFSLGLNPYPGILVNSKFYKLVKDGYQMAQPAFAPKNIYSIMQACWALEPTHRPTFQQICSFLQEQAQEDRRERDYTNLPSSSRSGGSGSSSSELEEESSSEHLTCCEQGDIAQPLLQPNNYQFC
Description: as §1

TEK (Tie2) = TEK (Tie2) (Homo sapiens, UniProt Q02763); assay: SelectScreen Kinase Profiling TEK; type: biochemical
Chain of TEK (Tie2) (Q02763 23-1124): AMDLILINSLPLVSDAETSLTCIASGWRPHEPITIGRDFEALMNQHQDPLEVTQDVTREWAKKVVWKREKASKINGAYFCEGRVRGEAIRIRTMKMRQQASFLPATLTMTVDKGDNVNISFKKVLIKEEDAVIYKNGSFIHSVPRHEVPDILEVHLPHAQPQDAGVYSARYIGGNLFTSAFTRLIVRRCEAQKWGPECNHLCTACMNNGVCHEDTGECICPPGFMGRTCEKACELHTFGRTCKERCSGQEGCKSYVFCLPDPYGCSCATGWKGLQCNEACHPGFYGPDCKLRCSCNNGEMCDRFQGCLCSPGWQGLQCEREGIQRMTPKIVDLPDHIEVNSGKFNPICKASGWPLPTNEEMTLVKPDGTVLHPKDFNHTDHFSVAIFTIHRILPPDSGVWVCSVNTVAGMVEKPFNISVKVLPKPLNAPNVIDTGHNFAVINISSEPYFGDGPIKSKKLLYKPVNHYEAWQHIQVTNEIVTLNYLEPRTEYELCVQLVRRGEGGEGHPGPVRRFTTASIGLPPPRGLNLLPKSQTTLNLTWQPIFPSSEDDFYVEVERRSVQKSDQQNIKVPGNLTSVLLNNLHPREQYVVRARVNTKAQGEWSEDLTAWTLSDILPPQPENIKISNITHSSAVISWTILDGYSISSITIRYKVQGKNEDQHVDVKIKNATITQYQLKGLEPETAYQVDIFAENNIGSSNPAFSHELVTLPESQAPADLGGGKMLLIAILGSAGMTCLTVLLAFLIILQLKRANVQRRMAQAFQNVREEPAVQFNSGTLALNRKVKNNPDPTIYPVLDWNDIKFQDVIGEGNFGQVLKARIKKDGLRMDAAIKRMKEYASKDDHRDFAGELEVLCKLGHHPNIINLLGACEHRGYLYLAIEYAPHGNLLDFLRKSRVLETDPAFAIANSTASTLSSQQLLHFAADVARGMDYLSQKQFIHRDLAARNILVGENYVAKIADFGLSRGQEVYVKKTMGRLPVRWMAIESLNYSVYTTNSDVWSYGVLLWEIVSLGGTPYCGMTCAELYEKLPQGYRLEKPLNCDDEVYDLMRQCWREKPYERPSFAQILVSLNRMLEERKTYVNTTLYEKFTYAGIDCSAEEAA
Description: as §1

TYRO3 (RSE) = TYRO3 (RSE) (Homo sapiens, UniProt Q06418); assay: SelectScreen Kinase Profiling TYRO3; type: biochemical
Description: as §1

FGFR3 = FGFR3 (Homo sapiens, UniProt P22607); assay: SelectScreen Kinase Profiling FGFR3; type: biochemical
Chain of FGFR3 (P22607 23-806): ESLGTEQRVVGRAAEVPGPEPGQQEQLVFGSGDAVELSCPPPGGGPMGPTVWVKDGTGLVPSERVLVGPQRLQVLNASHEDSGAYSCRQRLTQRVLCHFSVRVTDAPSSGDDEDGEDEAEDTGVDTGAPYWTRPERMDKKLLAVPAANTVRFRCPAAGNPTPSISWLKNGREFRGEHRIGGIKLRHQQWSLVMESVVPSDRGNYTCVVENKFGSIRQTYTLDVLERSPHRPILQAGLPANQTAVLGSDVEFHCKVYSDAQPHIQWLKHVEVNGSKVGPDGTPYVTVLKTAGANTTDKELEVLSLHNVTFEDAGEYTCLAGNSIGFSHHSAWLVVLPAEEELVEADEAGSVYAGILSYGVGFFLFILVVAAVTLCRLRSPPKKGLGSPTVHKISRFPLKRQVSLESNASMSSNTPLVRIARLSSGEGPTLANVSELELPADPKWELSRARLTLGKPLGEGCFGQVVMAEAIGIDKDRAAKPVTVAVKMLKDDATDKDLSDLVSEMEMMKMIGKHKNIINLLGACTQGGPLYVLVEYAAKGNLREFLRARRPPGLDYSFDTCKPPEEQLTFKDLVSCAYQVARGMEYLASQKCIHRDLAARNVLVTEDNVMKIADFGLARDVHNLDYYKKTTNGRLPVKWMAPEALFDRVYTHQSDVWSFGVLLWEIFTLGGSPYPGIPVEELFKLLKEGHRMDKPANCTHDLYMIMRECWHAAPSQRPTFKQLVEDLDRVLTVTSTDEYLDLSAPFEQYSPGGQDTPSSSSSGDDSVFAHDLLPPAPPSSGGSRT
Description: as §1

inhibition at 1 µM (MERTK (cMER)) [%] | inhibition at 1 µM (RPS6KB1 (p70S6K)) [%] | inhibition at 1 µM (MAP2K1 (MEK1)) [%] | inhibition at 1 µM (JAK2 JH1 JH2 V617F) [%] | inhibition at 1 µM (ABL1 T315I) [%] | inhibition at 1 µM (CDK1/cyclin B) [%] | inhibition at 1 µM (HCK) [%] | inhibition at 1 µM (EPHA2) [%] | inhibition at 1 µM (MAP4K4 (HGK)) [%] | inhibition at 1 µM (PDGFRA T674I) [%] | inhibition at 1 µM (RET) [%] | inhibition at 1 µM (PIM1) [%] | inhibition at 1 µM (AURKA (Aurora A)) [%] | inhibition at 1 µM (ROS1) [%] | inhibition at 1 µM (PTK2B (FAK2)) [%] | inhibition at 1 µM (MAPK1 (ERK2)) [%] | inhibition at 1 µM (AKT1 (PKB alpha)) [%] | inhibition at 1 µM (IKBKB (IKK beta)) [%] | inhibition at 1 µM (PRKCD (PKC delta)) [%] | inhibition at 1 µM (PDK1) [%] | Compound | also measured
7 | 3 | 16 | -11 | 11 | 5 | 8 | -23 | -1 | -9 | 5 | 4 | 18 | 7 | 6 | 9 | 5 | -5 | 4 | 7 | Cn1cc(-c2ccc3nnc(Sc4ccc5ncccc5c4)n3n2)cn1 [Compound 4, 6-[6-(1-Methyl-1H-pyrazol-4-yl)-[1,2,4]triazolo[4,3-b]pyridazin-3-ylsulfanyl]-quinoline] | inhibition at 1 µM (BRAF V599E): 36%; inhibition at 1 µM (NTRK3 (TRKC)): 7%; inhibition at 1 µM (AURKB (Aurora B)): 7%; inhibition at 1 µM (GRK4): 2%; inhibition at 1 µM (FLT3 D835Y): 8%; inhibition at 1 µM (GSK3B (GSK3 beta)): 5%; decrease of mean tumor volume compared to vehicle-treated group (GTL16 tumors; 10 mg/kg PO Q12H, 14 consecutive days): 65%; decrease of mean tumor volume compared to vehicle-treated group (GTL16 tumors; 20 mg/kg PO Q12H, 14 consecutive days): 75%; decrease of mean tumor volume compared to vehicle-treated group (GTL16 tumors; 30 mg/kg PO Q12H, 14 consecutive days): 81%; decrease of mean tumor volume compared to vehicle-treated group (GTL16 tumors; 60 mg/kg PO Q24H, 14 consecutive days): 75%; decrease of mean tumor volume compared to vehicle-treated group (GTL16 tumors; 100 mg/kg PO Q12H, 14 consecutive days): 87%; inhibition at 1 µM (CSF1R (FMS)): 19%; inhibition at 1 µM (TEK (Tie2)): 8%; inhibition at 1 µM (TYRO3 (RSE)): 19%; inhibition at 1 µM (FGFR3): -4%
10 | 5 | 3 | 9 | 47 | 17 | 9 | 2 | 27 | -1 | 21 | 0 | 49 | 41 | 12 | 0 | -1 | 1 | 5 | 6 | Cc1ccc2nnc(Sc3ccc4ncc(-c5cnn(C)c5)cc4c3)n2n1 [Compound 41, 3-(1-Methyl-1H-pyrazol-4-yl)-6-(6-methyl-[1,2,4]triazolo[4,3-b]pyridazin-3-ylsulfanyl)-quinoline] | inhibition at 1 µM (BRAF V599E): 7%; inhibition at 1 µM (NTRK3 (TRKC)): 85%; inhibition at 1 µM (AURKB (Aurora B)): 61%; inhibition at 1 µM (GRK4): -4%; inhibition at 1 µM (FLT3 D835Y): 35%; inhibition at 1 µM (GSK3B (GSK3 beta)): 1%; decrease of mean tumor volume compared to vehicle-treated group (GTL16 tumors; 1 mg/kg PO Q12H, 13 consecutive days): 42%; decrease of mean tumor volume compared to vehicle-treated group (GTL16 tumors; 3 mg/kg PO Q12H, 13 consecutive days): 67%; decrease of mean tumor volume compared to vehicle-treated group (GTL16 tumors; 10 mg/kg PO Q12H, 13 consecutive days): 80%; decrease of mean tumor volume compared to vehicle-treated group (GTL16 tumors; 30 mg/kg PO Q12H, 13 consecutive days): 87%; inhibition at 1 µM (CSF1R (FMS)): 79%; inhibition at 1 µM (TEK (Tie2)): 4%; inhibition at 1 µM (TYRO3 (RSE)): 22%; inhibition at 1 µM (FGFR3): 26%
